This test deals with T1, thrombin enzyme (Homo sapiens, UniProt P00734).
T1 construct: from tissue; host or cells: whole blood (drop of blood, 10 µl)
Nature of the test: specificity of the specific reagent vis-à-vis the thrombin enzyme, progressive inhibition by r-hirudin. It counts as biochemical. The conditions noted are these: whole blood, thrombin inhibited by increasing r-hirudin. On the procedure:
In the experiments reported hereinafter, potentiostatic measurements were performed by chronoamperometry by means of a potentiostat PGP 201 connected to the Vm1 software of Radiometer (Copenhagen) allowing the following conditions to be obtained:
The surface of the working electrode of the sensor used is 0.035 cm^2 and the sample quantity, drop of blood, or reference solution is 10 μl. the recording of measurements starts 10 seconds after the sample is deposited. The oligopeptide used, hereinafter designated according to use by <>, selected from those indicated previously, is:
Given that whole blood contains extremely numerous constituents, the present experiment allows it to be shown that only the thrombin enzyme is capable of cutting the specific reagent substrate. The experiment is performed in the optimisation conditions defined by experiment 3 (namely PC/PS in the ratio 25/75, Hepes buffer and lyophilisation) starting with a dilution in equal parts of blood and buffer solution and progressively inhibiting the thrombin enzyme by increasing concentrations of r-hirudin (r-hirudin 2000 ATU/bulb, available from Pentapharm AG, Basel, Switzerland) which replace the buffer solution, preferably having checked that the factor Xa is not inhibited by r-hirudin. […]

Consider “Tos-Gly-Pro-Arg-3-chloro-4-hydroxyanilide, 2HCl [substrate]”, for which the “cutting of the substrate, selectivity” value was “selectively cut off by thrombin”.
